Data from BigSolDB 2.1.

**Q.** With `CC(C)=CCOc1c2ccoc2cc2oc(=O)ccc12` as the molecule, how does the solubility (mole fraction) (in ethanol, 288.2 K) read?
**A.** 0.00263

**Q.** And the solubility (mole fraction) (in ethanol, 293.2 K)?
**A.** 0.00377

**Q.** What about the solubility (mole fraction) (in ethanol, 298.2 K) of the same molecule?
**A.** 0.00531

**Q.** And the solubility (mole fraction) (in ethanol, 303.2 K)?
**A.** 0.00733

**Q.** What about the solubility (mole fraction) (in ethanol, 308.2 K) of the same molecule?
**A.** 0.00999

**Q.** And the solubility (mole fraction) (in ethanol, 313.2 K)?
**A.** 0.0134

**Q.** And the solubility (mole fraction) (in ethanol, 318.2 K)?
**A.** 0.0178

**Q.** What about the solubility (mole fraction) (in ethanol, 323.2 K) of the same molecule?
**A.** 0.023

**Q.** And the solubility (mole fraction) (in ethanol, 328.2 K)?
**A.** 0.03

**Q.** What about the solubility (mole fraction) (in water, 288.2 K) of the same molecule?
**A.** 6.03e-07

**Q.** What about the solubility (mole fraction) (in water, 293.2 K) of the same molecule?
**A.** 7.42e-07

**Q.** And the solubility (mole fraction) (in water, 298.2 K)?
**A.** 9.34e-07

**Q.** What about the solubility (mole fraction) (in water, 303.2 K) of the same molecule?
**A.** 1.02e-06

**Q.** What about the solubility (mole fraction) (in water, 308.2 K) of the same molecule?
**A.** 1.16e-06

**Q.** What about the solubility (mole fraction) (in water, 313.2 K) of the same molecule?
**A.** 1.29e-06

**Q.** What about the solubility (mole fraction) (in water, 318.2 K) of the same molecule?
**A.** 1.68e-06

**Q.** What about the solubility (mole fraction) (in water, 323.2 K) of the same molecule?
**A.** 2.17e-06

**Q.** What about the solubility (mole fraction) (in water, 328.2 K) of the same molecule?
**A.** 2.79e-06
